Molecules are shown by their SMILES.

The text below walks through data of patent publication US12122761B2, “2-azaspiro[3.4]octane derivatives as M4 agonists” (NOVARTIS AG, priority 2019, dated 2024).

Assay [1] addresses T1, human cloned CHRM3 receptor (M3_CHO cells) (Homo sapiens, UniProt P20309).
T1 construct: expressed in transfected cells; host or cells: CHO-K1
The assay can be described thus: CHRM3 Ca++ Flux Assay (agonist mode, FDSS 7000EX). It is filed as cell-based. The note with it: for M3 FDSS PA / Emax: Percent Activity measured to EC100 of Carbachol; for EC50: agonist mode, geometric mean if tested more than once, read-out: M3 FDSS EC50; for Emax: read-out: M3 FDSS PA. A digest of the protocol:
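Agonist responses are measured as calcium mobilization in CHO-K1 cells expressing human M3 or M5, tested over an 11-point dose range in triplicate. Percent activity is normalised to carbachol at EC100.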

Assay [2] concerns the target T2, Cloned human M1 receptor (CHRM1) stably expressed in HEK293 cells (Homo sapiens, UniProt P11229).
T2 construct: expressed in transfected cells; host or cells: HEK293
T2 sequence (P11229 1-460): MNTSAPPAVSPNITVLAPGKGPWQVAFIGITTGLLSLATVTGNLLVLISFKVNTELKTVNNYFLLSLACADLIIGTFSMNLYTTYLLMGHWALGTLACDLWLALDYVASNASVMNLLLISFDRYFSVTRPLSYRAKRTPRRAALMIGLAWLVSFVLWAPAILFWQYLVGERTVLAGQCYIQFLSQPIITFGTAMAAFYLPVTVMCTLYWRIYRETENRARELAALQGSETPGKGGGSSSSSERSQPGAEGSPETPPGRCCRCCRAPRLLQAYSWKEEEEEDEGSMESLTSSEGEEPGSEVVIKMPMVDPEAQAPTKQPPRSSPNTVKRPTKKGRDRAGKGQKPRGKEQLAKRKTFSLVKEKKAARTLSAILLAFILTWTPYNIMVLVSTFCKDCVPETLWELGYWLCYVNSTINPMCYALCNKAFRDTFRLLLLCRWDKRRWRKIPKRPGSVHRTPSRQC
Nature of the assay: CHRM1 Ca++ Flux Assay (agonist mode, FDSS 7000EX). The assay is classed as cell-based. The note with it: for M1 FDSS PA: Percent Activity; for EC50: geometric mean if tested more than once; for Emax: HEK293, Percent Activity, read-out: M1 FDSS PA. The gist of the method:
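Compounds tested as agonists at 11 concentrations in triplicate, with calcium traces captured over 3 minutes. Cells were HEK293 with stable human CHRM1 expression, plated overnight at 25K/well and loaded with calcium dye. Responses normalized to carbachol EC100 and fitted by four-parameter nonlinear regression.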

T1 sequence (P20309 whole entry): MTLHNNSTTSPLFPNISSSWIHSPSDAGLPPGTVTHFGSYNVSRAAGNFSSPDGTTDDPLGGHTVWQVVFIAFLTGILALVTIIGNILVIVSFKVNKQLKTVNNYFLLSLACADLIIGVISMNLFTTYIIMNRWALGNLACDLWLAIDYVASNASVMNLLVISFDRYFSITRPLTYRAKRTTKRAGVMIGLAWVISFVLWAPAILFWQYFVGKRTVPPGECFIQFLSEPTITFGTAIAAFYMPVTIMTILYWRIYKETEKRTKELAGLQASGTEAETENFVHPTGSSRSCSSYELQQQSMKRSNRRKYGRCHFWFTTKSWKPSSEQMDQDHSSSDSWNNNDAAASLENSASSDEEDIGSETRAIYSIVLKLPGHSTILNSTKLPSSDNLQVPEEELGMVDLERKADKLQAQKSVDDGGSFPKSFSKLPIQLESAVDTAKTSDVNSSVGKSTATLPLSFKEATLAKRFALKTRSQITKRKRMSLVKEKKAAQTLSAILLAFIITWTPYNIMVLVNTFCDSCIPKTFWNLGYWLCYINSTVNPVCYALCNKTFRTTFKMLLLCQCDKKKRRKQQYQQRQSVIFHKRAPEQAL

As for `FC(F)(F)Oc1ccccc1C1CCN([C@@H]2CCC3(C2)CN(c2ncco2)C3)CC1` (single isomer, unassigned) [Example 10L, (R)-2-(6-(4-(2-(trifluoromethoxy)phenyl)piperidin-1-yl)-2-azaspiro[3.4]octan-2-yl)oxazole or (S)-2-(6-(4-(2-(trifluoromethoxy)phenyl)piperidin-1-yl)-2-azaspiro[3.4]octan-2-yl)oxazole], in assay [1], the “M3 FDSS PA” value was 2% and the EC50 was determined as 12.4 µM. Besides, in assay [2], the “M1 FDSS PA” value is on record as 50% and a half-maximal response (EC50) required 0.736 µM.
The like results for `FC(F)(F)Oc1ccccc1C1CCN([C@@H]2CCC3(C2)CN(c2nncs2)C3)CC1` (single isomer, unassigned) [Example 10M, (R)-2-(6-(4-(2-(trifluoromethoxy)phenyl)piperidin-1-yl)-2-azaspiro[3.4]octan-2-yl)-1,3,4-thiadiazole or (S)-2-(6-(4-(2-(trifluoromethoxy)phenyl)piperidin-1-yl)-2-azaspiro[3.4]octan-2-yl)-1,3,4-thiadiazole] were, in that order, 0%, > 25 µM, 77% and 0.049 µM.
`FC(F)(F)Oc1ccccc1C1CCN([C@@H]2CCC3(C2)CN(c2nncs2)C3)CC1` (single isomer, unassigned) [Example 10N, (R)-2-(6-(4-(2-(trifluoromethoxy)phenyl)piperidin-1-yl)-2-azaspiro[3.4]octan-2-yl)-1,3,4-thiadiazole or (S)-2-(6-(4-(2-(trifluoromethoxy)phenyl)piperidin-1-yl)-2-azaspiro[3.4]octan-2-yl)-1,3,4-thiadiazole]: in assay [1], the “M3 FDSS PA” value is recorded as 0% and the EC50 is > 25 µM. Also, in assay [2], the “M1 FDSS PA” value turned out to be 0% and the EC50 is > 25 µM.
As to `FC(F)Oc1ccccc1C1CCN([C@@H]2CCC3(C2)CN(c2nncs2)C3)CC1` (single isomer, unassigned) [Example 10O, (R)-2-(6-(4-(2-(difluoromethoxy)phenyl)piperidin-1-yl)-2-azaspiro[3.4]octan-2-yl)-1,3,4-thiadiazole or (S)-2-(6-(4-(2-(difluoromethoxy)phenyl)piperidin-1-yl)-2-azaspiro[3.4]octan-2-yl)-1,3,4-thiadiazole], in assay [1], the “M3 FDSS PA” value is recorded as 0% and the EC50 was > 25 µM. In addition, in assay [2], the “M1 FDSS PA” value is listed as 83% and a half-maximal response (EC50) required 0.044 µM.
For `COc1ccccc1C1CCN([C@@H]2CCC3(C2)CN(c2ncns2)C3)CC1` (single isomer, unassigned) [Example 10Q, (R)-5-(6-(4-(2-methoxyphenyl)piperidin-1-yl)-2-azaspiro[3.4]octan-2-yl)-1,2,4-thiadiazole or (S)-5-(6-(4-(2-methoxyphenyl)piperidin-1-yl)-2-azaspiro[3.4]octan-2-yl)-1,2,4-thiadiazole] the same measures were 0%, > 25 µM, 66% and 0.17 µM.
For `COc1ccccc1C1CCN([C@@H]2CCC3(C2)CN(c2ncns2)C3)CC1` (single isomer, unassigned) [Example 10R, (R)-5-(6-(4-(2-methoxyphenyl)piperidin-1-yl)-2-azaspiro[3.4]octan-2-yl)-1,2,4-thiadiazole or (S)-5-(6-(4-(2-methoxyphenyl)piperidin-1-yl)-2-azaspiro[3.4]octan-2-yl)-1,2,4-thiadiazole] the same measures were 0%, > 25 µM, 0% and > 25 µM.
`O=C(N1CC2(CC[C@@H](N3CCC(c4cc(F)ccc4OC4CC5(COC5)C4)CC3)C2)C1)C1(F)CC1` (single isomer, unassigned) [Example 11A, (R)-(6-(4-(2-((2-oxaspiro[3.3]heptan-6-yl)oxy)-5-fluorophenyl)piperidin-1-yl)-2-azaspiro[3.4]octan-2-yl)(1-fluorocyclopropyl)methanone or (S)-(6-(4-(2-((2-oxaspiro[3.3]heptan-6-yl)oxy)-5-fluorophenyl)piperidin-1-yl)-2-azaspiro[3.4]octan-2-yl)(1-fluorocyclopropyl)methanone]: in assay [1], the “M3 FDSS PA” value was 0% and the EC50 was > 25 µM. For the same compound, in assay [2], the “M1 FDSS PA” value is given as 9% and the EC50 was > 25 µM.
Take `O=C(N1CC2(CC[C@@H](N3CCC(c4cc(F)ccc4OC4CC5(COC5)C4)CC3)C2)C1)C1(F)CC1` (single isomer, unassigned) [Example 11B, (R)-(6-(4-(2-((2-oxaspiro[3.3]heptan-6-yl)oxy)-5-fluorophenyl)piperidin-1-yl)-2-azaspiro[3.4]octan-2-yl)(1-fluorocyclopropyl)methanone or (S)-(6-(4-(2-((2-oxaspiro[3.3]heptan-6-yl)oxy)-5-fluorophenyl)piperidin-1-yl)-2-azaspiro[3.4]octan-2-yl)(1-fluorocyclopropyl)methanone]: in assay [1], the “M3 FDSS PA” value was 0% and the EC50 is > 25 µM. In assay [2], the “M1 FDSS PA” value was determined as 9% and a half-maximal response (EC50) required 0.03 µM.
Take `O=C(N1CC2(CC[C@@H](N3CCC(c4ccccc4OC4CC5(COC5)C4)CC3)C2)C1)C1(F)CC1` (single isomer, unassigned) [Example 11C, (R)-(6-(4-(2-((2-oxaspiro[3.3]heptan-6-yl)oxy)phenyl)piperidin-1-yl)-2-azaspiro[3.4]octan-2-yl)(1-fluorocyclopropyl)methanone or (S)-(6-(4-(2-((2-oxaspiro[3.3]heptan-6-yl)oxy)phenyl)piperidin-1-yl)-2-azaspiro[3.4]octan-2-yl)(1-fluorocyclopropyl)methanone]: in assay [1], the “M3 FDSS PA” value is listed as −1% and the EC50 is > 25 µM. Also, in assay [2], the “M1 FDSS PA” value turned out to be 1% and the EC50 is > 25 µM.
Consider `O=C(N1CC2(CC[C@@H](N3CCC(c4ccccc4OC4CC5(COC5)C4)CC3)C2)C1)C1(F)CC1` (single isomer, unassigned) [Example 11D, (R)-(6-(4-(2-((2-oxaspiro[3.3]heptan-6-yl)oxy)phenyl)piperidin-1-yl)-2-azaspiro[3.4]octan-2-yl)(1-fluorocyclopropyl)methanone or (S)-(6-(4-(2-((2-oxaspiro[3.3]heptan-6-yl)oxy)phenyl)piperidin-1-yl)-2-azaspiro[3.4]octan-2-yl)(1-fluorocyclopropyl)methanone], for which, in assay [1], the “M3 FDSS PA” value is on record as 0% and the EC50 is > 25 µM. In assay [2], the “M1 FDSS PA” value is listed as 1% and the EC50 was > 25 µM.
Turning to `Fc1ccc(OC2CC3(COC3)C2)c(C2CCN([C@@H]3CCC4(C3)CN(c3nnco3)C4)CC2)c1` [Example 1B, (R)-2-(6-(4-(2-((2-oxaspiro[3.3]heptan-6-yl)oxy)-5-fluorophenyl)piperidin-1-yl)-2-azaspiro[3.4]octan-2-yl)-1,3,4-oxadiazole], in assay [1], the Emax was found to be 0% and the EC50 is > 25 µM. In assay [2], the Emax is 48% and the EC50 came out at 0.322 µM.
With `c1ccc(C2CCN([C@@H]3CCC4(C3)CN(c3nnco3)C4)CC2)c(OC[C@H]2COCCO2)c1` [Example 1C, 2-((R)-6-(4-(2-(((R)-1,4-dioxan-2-yl)methoxy)phenyl)piperidin-1-yl)-2-azaspiro[3.4]octan-2-yl)-1,3,4-oxadiazole], the figures for the Emax in assay [1] and in assay [2] were 0% and 85%, respectively. The figures for the EC50 in assay [1] and in assay [2] were > 25 µM and 0.056 µM, respectively.
The like results for `Cc1coc(N2CC3(CC[C@@H](N4CCC(c5ccc(F)cc5OCC(C)(C)O)CC4)C3)C2)n1` [Example 3N, (R)-1-(5-fluoro-2-(1-(2-(4-methyloxazol-2-yl)-2-azaspiro[3.4]octan-6-yl)piperidin-4-yl)phenoxy)-2-methylpropan-2-ol] were, in that order, 0%, 0%, > 25 µM and > 25 µM.
The like results for `Cc1coc(N2CC3(CC[C@@H](N4CCC(c5ccccc5OCC(C)(C)O)CC4)C3)C2)n1` [Example 3O, (R)-2-methyl-1-(2-(1-(2-(4-methyloxazol-2-yl)-2-azaspiro[3.4]octan-6-yl)piperidin-4-yl)phenoxy)propan-2-ol] were, in that order, 0%, 0%, > 25 µM and > 25 µM.
For `COc1ccccc1C1CCN([C@@H]2CCC3(C2)CN(c2ncon2)C3)CC1` [Example 4A, (R)-3-(6-(4-(2-methoxyphenyl)piperidin-1-yl)-2-azaspiro[3.4]octan-2-yl)-1,2,4-oxadiazole] the same measures were 0%, 83%, > 25 µM and 0.015 µM.
